Experimental data: the supplement of paper PMC13380429

Legend:
Details in all cases: 72 h
HepG2 [1] = assay: cell viability relative to DMSO; higher = less toxic
Calu-3 [2] = assay: as above
Vero E6 [3] = assay: as above
U2OS [4] = assay: as above
Caco-2 [5] = assay: as above
HepG2 [6] = assay: relative viability EC50 (midpoint between 100% and the lowest measured viability); higher = less toxic
Calu-3 [7] = assay: as above
Vero E6 [8] = assay: as above
U2OS [9] = assay: as above
Caco-2 [10] = assay: as above
HepG2 [11] = assay: drug sensitivity score (DSS) for viability; higher = more toxic; extreme values may be limits of the assay
Calu-3 [12] = assay: as above
Vero E6 [13] = assay: as above
U2OS [14] = assay: as above
Caco-2 [15] = assay: as above

Structure (SMILES)	cell viability (HepG2 [1]; 1 nM) [%]	cell viability (HepG2 [1]; 10 nM) [%]	cell viability (HepG2 [1]; 100 nM) [%]	cell viability (HepG2 [1]; 1000 nM) [%]	cell viability (HepG2 [1]; 10000 nM) [%]	cell viability (Calu-3 [2]; 1 nM) [%]	cell viability (Calu-3 [2]; 10 nM) [%]	cell viability (Calu-3 [2]; 100 nM) [%]	cell viability (Calu-3 [2]; 1000 nM) [%]	cell viability (Calu-3 [2]; 10000 nM) [%]	cell viability (Vero E6 [3]; 1 nM) [%]	cell viability (Vero E6 [3]; 10 nM) [%]	cell viability (Vero E6 [3]; 100 nM) [%]	cell viability (Vero E6 [3]; 1000 nM) [%]	cell viability (Vero E6 [3]; 10000 nM) [%]	cell viability (U2OS [4]; 1 nM) [%]	cell viability (U2OS [4]; 10 nM) [%]	cell viability (U2OS [4]; 100 nM) [%]	cell viability (U2OS [4]; 1000 nM) [%]	cell viability (U2OS [4]; 10000 nM) [%]	cell viability (Caco-2 [5]; 1 nM) [%]	cell viability (Caco-2 [5]; 10 nM) [%]	cell viability (Caco-2 [5]; 100 nM) [%]	cell viability (Caco-2 [5]; 1000 nM) [%]	cell viability (Caco-2 [5]; 10000 nM) [%]	relative viability EC50 (HepG2 [6]) [µM]	relative viability EC50 (Calu-3 [7]) [µM]	relative viability EC50 (Vero E6 [8]) [µM]	relative viability EC50 (U2OS [9]) [µM]	relative viability EC50 (Caco-2 [10]) [µM]	drug sensitivity score (HepG2 [11])	drug sensitivity score (Calu-3 [12])	drug sensitivity score (Vero E6 [13])	drug sensitivity score (U2OS [14])	drug sensitivity score (Caco-2 [15])
CCCn1c(=O)[nH]c(=O)c2nc[nH]c21 [enprofylline]	97.4	110	100	95.9	88.2	105	96.9	95.6	108	109	97.6	98.3	91.1	94.7	94.5	104	99.1	98.9	97.6	104	104	100	99.5	104	95.5	> 10	> 10	> 10	> 10	> 10	0.2	0	0	0	0
CCOC(=O)[C@@H](C)Oc1ccc(Oc2nc3ccc(Cl)cc3o2)cc1 [fenoxaprop-p-ethyl]	97.9	102	103	101	108	105	99	113	110	112	96.8	92.2	93.8	101	115	101	97.9	97.3	101	99.8	102	100	103	101	97.2	> 10	> 10	> 10	> 10	> 10	0	0	0	0	0
CS(=O)(=O)c1ccc([C@@H](O)[C@@H](CF)NC(=O)C(Cl)Cl)cc1 [florfenicol]	107	91	115	93.1	48	93.7	90.8	86.2	103	98.8	100	104	95.9	104	95.2	99.9	96.2	99.1	98.3	99.5	109	99.9	107	97.1	96	2.11	> 10	> 10	> 10	> 10	3.9	0	0	0	0
Nc1nc(F)nc2c1ncn2[C@@H]1O[C@H](CO)[C@@H](O)[C@@H]1O [fludarabine]	103	95.6	95.2	95.6	79.4	111	88.9	95.2	87.6	87.5	93.9	95.2	92.8	99.4	101	98.8	102	98.6	102	103	94.1	104	102	99.9	102	> 10	> 10	> 10	> 10	> 10	1.1	0.7	0	0	0
C[C@]12CCC(=O)C(O)=C1CC[C@@H]1[C@@H]2CC[C@]2(C)C(=O)CC[C@@H]12 [formestane]	117	111	108	112	98.6	98.7	96.1	91.4	93.8	93.3	97.8	92.4	86.7	103	104	102	98.2	102	95.3	105	114	96.9	95	105	117	> 10	> 10	> 10	> 10	> 10	0	0	0	0	0
C[C@]12CC[C@@H]3c4ccc(O)cc4C[C@@H](CCCCCCCCC[S+]([O-])CCCC(F)(F)C(F)(F)F)[C@H]3[C@@H]1CC[C@@H]2O (stereo not given in full) [fulvestrant]	100	102	96.8	98	86.7	96.7	114	104	90.2	92.7	100	102	100	96.9	99.6	105	110	102	103	88.7	104	107	102	110	85.4	> 10	> 10	> 10	> 10	> 10	0.3	0	0	0	0.1
CCC(C/C=C/c1ccccc1)(c1ccccc1)N(C)CC1CC1 (stereo not given) [igmesine]	102	105	101	102	96.8	99	104	96.8	102	97.8	98.8	97.7	94.2	98.1	107	94.7	99	100	101	102	95.4	97	95.2	102	103	> 10	> 10	> 10	> 10	> 10	0	0	0	0	0
O=C(CCCCC(=O)Nc1c(I)cc(I)c(C(=O)O)c1I)Nc1c(I)cc(I)c(C(=O)O)c1I [iodipamide]	96	93.3	97.6	101	103	98	104	93.6	101	101	102	99.2	101	98.6	103	96.2	103	97.7	95.1	97.9	106	106	97.1	95.3	102	> 10	> 10	> 10	> 10	> 10	0	0	0	0	0
CC(=O)N(CC(O)CO)c1c(I)c(C(=O)NCCO)c(I)c(C(=O)NCC(O)CO)c1I (stereo not given) [ioxilan]	105	101	86	109	90.8	105	96.9	99.7	101	88.9	113	103	93	106	101	97.1	97.1	101	92.8	102	103	91.6	93.6	90.5	90.6	> 10	> 10	> 10	> 10	> 10	0	0	0	0	0
CC(C)Cn1cnc2c1c(=O)n(C)c(=O)n2C [isbufylline]	100	99	91.7	93.7	105	104	88.5	101	102	98.4	92.9	95.9	91.3	104	106	98.1	96.5	98.1	97.3	93.3	93.7	96.8	112	115	112	> 10	> 10	> 10	> 10	> 10	0	0	0	0	0
CN[C@@H](C)CCC=C(C)C [isometheptene-mucate]	96.1	101	107	94.5	95	94	100	98.1	100	108	91.1	96.2	92.5	97	104	104	96.5	98.7	103	105	93.4	102	93.7	93.9	106	> 10	> 10	> 10	> 10	> 10	0	0	0	0	0
O=C(O)Cc1ccc2c(c1)C(=O)c1ccccc1CO2 [isoxepac]	99.1	103	97.5	101	91.2	96.9	97.9	98.5	101	98.5	98.3	97.5	101	101	100	102	95.4	101	98.3	101	94.7	102	109	100	93.6	> 10	> 10	> 10	> 10	> 10	0	0	0	0	0
O=c1c(-c2ccc(O)cc2)coc2c([C@@H]3O[C@H](CO)[C@@H](O)[C@H](O)[C@H]3O)c(O)ccc12 [kakonein]	95.7	97.7	84.6	99.6	93.5	104	99.3	111	102	95.5	98	103	99.1	95.3	91.8	99.2	95.1	99.3	95.2	97.9	122	104	108	106	96.3	> 10	> 10	> 10	> 10	> 10	0	0	0	0	0
O=C(O)c1cc(=O)c2ccccc2[nH]1 [kynurenic-acid]	93.9	94.2	99.1	108	96	89.7	89.2	97.1	94.1	104	96.9	98.7	97.6	97.5	97.7	104	101	103	97	98.8	94.9	101	99.6	99.6	106	> 10	> 10	> 10	> 10	> 10	0	0	0	0	0
